From patent publication US20010053772A1, “Aza analogues of alkyl lysophospholipids exert immunomodulatory effects” (priority 2000, published 2001)

Tests used:
TNF-α [1] = experiment: TNF-α secretion by human PBM, ELISA of supernatants; type: cell-based; conditions: for effect on BN52207 induced secretion of TNF-α: PBM 18 hours with BN52207 (5 μg/ml), emetine (1 μg/ml), cycloheximide (5 μg/ml)
Experimental: Also referring to FIG. 2, the AALP analogues, are therein shown to have immunoregulatory properties. The effect of AALP on the secretion of TNF-α, IL-1β, IL-6, and IL-10 cytokines by both resting and LPS and IFN-γ activated human peripheral blood derived monocytes. Human PBM were incubated for 18 hours at 37° C. in the absence or in the presence of different concentrations of AALP analogues. The cell-free supernatants were harvested and clarified by centrifugation and assessed for the presence of TNF-α, IL-1β, and IL-6 by Enzyme Linked Immunosorbant Assay (ELISA). For TNF-α, there was stimulation of secretion by all compounds at concentrations >0.6 μg/ml and up to 10 μg/ml. […] Similar findings were also obtained for IL-1β. There was no significant difference in the levels of stimulated TNF-α and IL-1β among the five AALP compounds. In contrast to TNF-α and IL-1β, there was no significant stimulation of IL-6 above background levels upon stimulation by any of the five AALP analogues. However, there was significant inhibition of IL-6 secretion at 10 μg/ml and the levels were below the spontaneous secretion of IL-6.
As a result of the similarity of results of the five AALP on PBM, BN52207 was selected to conduct the following experiments. However, it is to be understood that any other AALP analogue may be used to obtain a similar result. Now referring to FIG. 3, human PBM were incubated for 18 hours at 37° C. in the presence or absence of different concentration of BN52207. The PBM were left untreated or treated with IFN-γ (500 U/ml) or LPS (1 μg/ml) added at the initiation of the culture. The supernatants were harvested, clarified by centrifugation, and stored at −70° C. The levels of TNF-α with IFN-γ (FIG. 3A), LPS (FIG. 3B), or BN+LPS (FIG. 3C) activated PBM were assessed by ELISA.
BN52207 potentiated the secretion of TNF-α from IFN-γ-activated PBM and LPS-activated PBM. […] Now referring to FIG. 4, to confirm de novo synthesis of TNF-α mRNA PBM were treated with protein synthesis inhibitors. PBM were incubated for 18 hours with BN52207 (5 μg/ml) in the absence or presence of LPS (1 μg/ml), LPS (1 μg/ml) plus pentoxifylline (50 μg/ml), emetine (1 μg/ml), and cycloheximide (5 μg/ml). The cell-free supernatants were collected and clarified by centrifugation and the level of TNF-α in the supernatants was assessed by ELISA.
Now referring to FIGS. 8 A, B, and C, the kinetics of induction/inhibition of cytokine secretion by AALP were examined. […]
Human peripheral blood was obtained from normal volunteers as per HSPC guidelines of UCLA. […] The adherent cells prepared by this procedure were primarily monocytes (>90%) as determined by esterase staining and flow cytometry using markers for monocytes, T cells, B cells, and NK cells. […]

TNF-α [2] = conditions: cited from earlier work

Molecule: IFN-γ: recombinant interferon-γ, a gift from Genentech
- TNF-α secretion on stimulation of PBM with IFN-γ alone (TNF-α [1]; IFN-γ (500 U/ml), 18 hours, FIG. 3A): results in the secretion of TNF-α

Molecule: C[C@@H]1C[C@@H]([C@H](O)CC2CC(=O)NC(=O)C2)C(=O)[C@@H](C)C1 [CHX, cycloheximide]
- effect on BN52207 induced secretion of TNF-α (TNF-α [1]; FIG. 4): inhibited

Molecule: CC1C(=O)OC2C(O)C34C5CC(C(C)(C)C)C36C(OC(=O)C6O)OC4(C(=O)O5)C12O (centres unmarked) [BN52021]
- effect on TNF-α augmented production by PAF in monocytes (TNF-α [2]): blocks

Molecule: CC(=O)CCCCn1c(=O)c2c(ncn2C)n(C)c1=O [pentoxifylline]
- effect on BN enhanced stimulation of TNF-α secretion by LPS stimulated PBM (TNF-α [1]; PBM 18 hours, BN52207 (5 μg/ml) + LPS (1 μg/ml) + pentoxifylline (50 μg/ml), FIG. 4): inhibited

Molecule: CC[C@H]1CN2CCc3cc(OC)c(OC)cc3[C@@H]2C[C@@H]1C[C@H]1NCCc2cc(OC)c(OC)cc21 [emetine]
- effect on BN52207 induced secretion of TNF-α (TNF-α [1]; FIG. 4): inhibited
